SMILES strings stand for the structures.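 Following 48 hours of exposure in 96-well plates, responses at five concentrations were used to interpolate endpoints linearly. Here, GI50 denotes the concentration required for 50% inhibition of growth.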 Activity calls are given as the source filed them. Rule as the data show it: active = GI50 up to about 1.1 µM and inactive = higher. A value given as a limit tells only on which side of the number the result lay.

Holding throughout (test): inhibition of tumour cell growth, NCI panel, 48 h
The test system of assay [1] is SF-295.
Assay [2] deals with BT-549.
In assay [3] the test system is UO-31.
Assay [4] relates to HOP-62.
Assay [5] relates to CAKI-1.
For assay [6], the system named is HL-60.
Assay [7] relates to EKVX.
In assay [8] the test system is M14.
Assay [9] relates to ACHN.
The test system of assay [10] is CCRF-CEM.
The test system of assay [11] is UACC-62.
Assay [12] concerns NCI-H522.
Assay [13] concerns TK-10.
Assay [14] concerns RXF 393.
The subject of assay [15] is MDA-MB-231.
The subject of assay [16] is NCI/ADR-RES.
For assay [17], the system named is SF-268.
Assay [18] has as its system U-251.
Assay [19] relates to MOLT-4.
The subject of assay [20] is SF-539.

On to `CCCn1cnc2c(SCC(=O)O)nc(N)nc21`, for which the GI50 in assay [1], in assay [2], in [3], in [4], in assay [5] and in [6] was > 100 µM (inactive) in each case. In addition, the GI50 in assay [7], in assay [8], in assay [9], in assay [10], in [11] and in [12] was > 100 µM (inactive) each time. The GI50 in assay [13], in assay [14], in assay [15], in [16], in assay [17] and in assay [18] was > 100 µM (inactive) in each case.
As for `COc1ccc2c(=O)cc(-c3ccncc3)oc2c1OC`, the GI50 in [1] was 20.9 µM (inactive); in [2] it was 26 µM (inactive); in assay [3], 19.7 µM (inactive); in assay [4], 30.8 µM (inactive); in assay [5] it was 36.1 µM (inactive); in assay [6] it was 19.5 µM (inactive). Also, the GI50 in assay [7] is 28.2 µM (inactive); in assay [8] it was 19.8 µM (inactive); in [19], 7.57 µM (inactive); in [9] it was 25.7 µM (inactive); in [10], 29.1 µM (inactive); in [11] it was 14 µM (inactive). The GI50 in assay [12] is 24.6 µM (inactive); in assay [13], 28.1 µM (inactive); in [14], 24.9 µM (inactive); in [15] it was 31.8 µM (inactive); in [16], 34 µM (inactive); in assay [17], 21.8 µM (inactive). The GI50 in assay [18] is 30.1 µM (inactive).
For the compound `CCOC(=O)CCc1c(C(=O)OCC)[nH]c(/C=C2/NC(=O)C(C)=C2CC)c1C`, the GI50 was 11.6 µM (inactive) in assay [1]; 1.61 µM (inactive) in assay [2]; 2 µM (inactive) in assay [3]; 15 µM (inactive) in [4]; 21.2 µM (inactive) in assay [5]; 5.01 µM (inactive) in assay [6]. Also, the GI50 in assay [8] was 7.28 µM (inactive); in assay [19] it was 0.0224 µM (active); in assay [9], 11.3 µM (inactive); in assay [11] it was 4.9 µM (inactive); in assay [12], 11.7 µM (inactive); in [13], 24.7 µM (inactive). The GI50 is 11.1 µM (inactive) in assay [14]; 19.5 µM (inactive) in assay [20]; 13.6 µM (inactive) in [15]; 10.4 µM (inactive) in assay [16]; 10.2 µM (inactive) in assay [17]; 11.2 µM (inactive) in assay [18].
As to `N#CC12C(=O)N3C(=NC(c4ccccc4)NC3c3ccccc3)C1(C#N)C(c1ccccc1)NC1=C2CCC1` (stereo unspecified), the GI50 in assay [1], in assay [2], in assay [3], in assay [4], in [5] and in assay [6] was > 100 µM (inactive) throughout. Further, the GI50 in assay [7], in [8], in [19], in assay [9], in assay [10] and in assay [11] was > 100 µM (inactive) in each case. Besides, the GI50 in assay [12], in assay [13], in [14], in assay [15], in assay [16] and in assay [17] was > 100 µM (inactive) each time. The GI50 in assay [18] is > 100 µM (inactive).
In the case of `O=C(NCc1ccccc1Cl)c1c(O)c2ccccc2[nH]c1=O`, the GI50 was 33.4 µM (inactive) in [1]; 34.9 µM (inactive) in [2]; 13.6 µM (inactive) in assay [3]; 19.1 µM (inactive) in assay [4]; 22.7 µM (inactive) in assay [5]; > 100 µM (inactive) in [6]. Moreover, the GI50 in assay [7] was > 100 µM (inactive); in assay [19], > 100 µM (inactive); in assay [9] it was > 10 µM (inactive); in [10], > 100 µM (inactive); in [12] it was > 100 µM (inactive); in assay [13] it was 56.4 µM (inactive). The GI50 was 21.2 µM (inactive) in assay [14]; > 100 µM (inactive) in assay [20]; 18.6 µM (inactive) in assay [15]; 12.2 µM (inactive) in assay [16]; 72.1 µM (inactive) in assay [17]; 18.7 µM (inactive) in assay [18].
For `CC1=C(c2ccc(C)cc2)NC(=S)C(C)C(c2ccc(C)cc2)=N1` (stereo unspecified), the GI50 in assay [1] was 67.6 µM (inactive); in assay [2], 72.3 µM (inactive); in assay [3] it was 40.5 µM (inactive); in assay [4], 85.7 µM (inactive); in assay [5], > 100 µM (inactive); in [6], 30.3 µM (inactive). In addition, the GI50 in assay [7] is 56.6 µM (inactive); in [19], 32.8 µM (inactive); in assay [9], 50.2 µM (inactive); in [10], 27.2 µM (inactive); in assay [11] it was 89.7 µM (inactive); in [13] it was > 100 µM (inactive). The GI50 was 14.7 µM (inactive) in assay [14]; 92.5 µM (inactive) in assay [20]; > 100 µM (inactive) in assay [15]; > 100 µM (inactive) in assay [16]; > 100 µM (inactive) in [17]; > 100 µM (inactive) in assay [18].
`O=C(CN1CCN(c2ccccc2)CC1)c1ccc2[nH]c(=O)oc2c1`: the GI50 in [1], in assay [2], in assay [4], in [5], in assay [6] and in assay [7] was > 100 µM (inactive) each time. The GI50 in assay [8], in assay [19], in assay [9], in [10], in assay [11] and in assay [13] was > 100 µM (inactive) in each case. Moreover, the GI50 in assay [14] is > 100 µM (inactive); in [20], 36.5 µM (inactive); in assay [15], 83.4 µM (inactive); in assay [16], 49.5 µM (inactive); in assay [17], > 100 µM (inactive); in assay [18], 35.6 µM (inactive).
As to `CC(=O)OCC1OC(Nc2ccc3nc(C)n(-c4ccccc4)c(=O)c3c2)C(OC(C)=O)C(OC(C)=O)C1OC(C)=O` (stereo unspecified), the GI50 in assay [1] is > 50 µM (inactive); in [2], > 50 µM (inactive); in assay [3], > 50 µM (inactive); in assay [4] it was > 50 µM (inactive); in [5] it was > 50 µM (inactive); in [6], 23.7 µM (inactive). The GI50 in assay [7] was > 50 µM (inactive); in assay [19], > 50 µM (inactive); in assay [9], > 50 µM (inactive); in [11], 41.3 µM (inactive); in assay [12], > 50 µM (inactive); in assay [13] it was > 50 µM (inactive). Also, the GI50 in [14], in [15], in [16], in assay [17] and in [18] was > 50 µM (inactive) in each case.
Consider `CCC1CCC2c3c([nH]c4ccccc34)C3C(=O)N(c4ccc(OC)cc4)C(=O)C3C2C1` (stereo unspecified), for which the GI50 in [1] is 26.8 µM (inactive); in assay [2], > 100 µM (inactive); in [3] it was > 100 µM (inactive); in assay [4] it was 54.6 µM (inactive); in assay [6] it was 28.2 µM (inactive); in assay [7], 48.3 µM (inactive). Besides, the GI50 in assay [8] was 63 µM (inactive); in assay [19], 16.7 µM (inactive); in assay [9], 39.8 µM (inactive); in [10], 11.1 µM (inactive); in [11] it was 61.8 µM (inactive); in assay [12], 77.6 µM (inactive). Further, the GI50 in [13] is 28.2 µM (inactive); in assay [14] it was > 100 µM (inactive); in [20] it was 34 µM (inactive); in assay [15], 49.7 µM (inactive); in [16], 39.6 µM (inactive); in [17] it was 52.5 µM (inactive). Moreover, in assay [18], the GI50 is 18.7 µM (inactive).
Consider `COc1ccc2c(c1)N=C(N)n1c(nc3ccccc31)S2`, for which the GI50 in assay [1] is 38.5 µM (inactive); in assay [2] it was 27.1 µM (inactive); in assay [3] it was 12.2 µM (inactive); in assay [4] it was 57.8 µM (inactive); in assay [6], 3.79 µM (inactive); in assay [8], 4.01 µM (inactive). Besides, the GI50 is 5.28 µM (inactive) in assay [19]; 21.3 µM (inactive) in assay [9]; 2.99 µM (inactive) in assay [10]; 16.3 µM (inactive) in assay [11]; 12.2 µM (inactive) in assay [12]; > 100 µM (inactive) in assay [13]. Further, the GI50 in assay [14] was 19.5 µM (inactive); in assay [20] it was 34.6 µM (inactive); in assay [15], 12.7 µM (inactive); in assay [16] it was 19.2 µM (inactive); in assay [17] it was 19.5 µM (inactive); in assay [18], 6.27 µM (inactive).
As to `BC(=O)NC(CC(C)C)C(=O)NC1c2ccsc2C(=O)C1O.CN(C)C` (stereo unspecified), the GI50 in assay [1], in [2], in assay [3], in [4], in [6] and in assay [7] was > 100 µM (inactive) each time. The GI50 in [8], in [19], in assay [9], in assay [10], in assay [11] and in assay [12] was > 100 µM (inactive) each time. Moreover, the GI50 in [13], in [14], in assay [20], in assay [15], in assay [16] and in assay [17] was > 100 µM (inactive) each time. The GI50 in assay [18] was > 100 µM (inactive).

(Values after ChEMBL document CHEMBL1201862, “PubChem BioAssay data set” (2004).)
